Data reported in PubChem BioAssay (NCI).
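48-hour exposure; five concentrations; linearly interpolated endpoints. Here, GI50 denotes the concentration required for 50% inhibition of growth. TGI is the concentration that stops growth completely.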

Key:
Test in all cases: NCI anticancer screen, dose series, 48 h
[1] = test system: CAKI-1 renal
[2] = test system: HL-60(TB) leukemia
[3] = test system: RXF 393 renal
[4] = test system: TK-10 renal
[5] = test system: SW-620 colon
[6] = test system: KM12 colon
[7] = test system: OVCAR-4 ovarian
[8] = test system: UACC-257 melanoma
[9] = test system: M14 melanoma
[10] = test system: SF-295 CNS

Row | SMILES | TGI [1] [µM] | TGI [2] [µM] | TGI [3] [µM] | TGI [4] [µM] | TGI [5] [µM] | TGI [6] [µM] | TGI [7] [µM] | TGI [8] [µM] | TGI [9] [µM] | TGI [10] [µM] | GI50 [1] [µM] | GI50 [2] [µM] | GI50 [3] [µM] | GI50 [4] [µM] | GI50 [5] [µM] | GI50 [6] [µM] | GI50 [7] [µM] | GI50 [8] [µM] | GI50 [9] [µM] | GI50 [10] [µM]
1 | COC(=O)[C@@H]1O[C@]12[C@@H](CO[Si](C)(C)C(C)(C)C)O[C@@H](n1cc(C)c(=O)[nH]c1=O)[C@@H]2O[Si](C)(C)C(C)(C)C | 70 | 5.47 | 22.7 | > 100 | 27.9 | > 100 | > 100 | 75.2 | 35.9 | 49.7 |  |  |  |  |  |  |  |  |  | 
2 | c1cc2ccc1CNCCN1CCNCc3ccc(cc3)Oc3ccc(cc3)CNCCN(CCNCc3ccc(cc3)O2)CCNCc2ccc(cc2)Oc2ccc(cc2)CNCC1 | 12.9 | 2.02 | 3.72 | 3.45 | 2.63 | 3.22 | 3.34 | 3.4 | 3.38 | 3.18 | 3.07 | 0.503 | 1.78 | 1.62 | 1.11 | 1.77 | 1.79 | 1.8 | 1.7 | 1.76
